Data on 23 molecules can be found in patent US20250179000A1 (Sanford Burnham Prebys Medical Discovery Institute, priority 2021, published 2025).

Bounds are passed on as bounds.

The target in one test is Human mGlu2 (Homo sapiens, UniProt Q14416). The test can be described thus: mGlu receptor in vitro assay, human mGlu2. It counts as cell-based.
The target in a further test is Human mGlu3 (Homo sapiens, UniProt Q14832). The test can be described thus: mGlu receptor in vitro assay, human mGlu3. The test is classed as cell-based. The method, then: Human Embryonic Kidney (HEK-293) cell lines co-expressing rat mGlu receptors 2, 3, 4, 6, 7 or 8 and G protein-coupled inwardly-rectifying potassium (GIRK) channels were grown in Growth Media containing 45% DMEM, 45% F-12, 10% FBS, 20 mM HEPES, 2 mM L-glutamine, antibiotic/antimycotic, non-essential amino acids, 700 μg/mL G418, and 0.6 μg/ml puromycin at 37° C. in the presence of 5% CO2. […] All cell culture reagents were purchased from Invitrogen Corp. (Carlsbad, CA) unless otherwise noted. Calcium assays were used to assess activity of compounds at mGlu1 and mGlu5, as previously described in Engers et al (J. Med. Chem. 2009, 52, 4115-4118). Calcium assays at mGlu3 were performed as described for mGlu5 with the exception that TREx293 mGlu3 Gα15 cells were treated with tetracycline at 20 ng/mL for 20 h prior to assay.
Briefly, cells were plated into 384-well, black-walled, clear-bottomed poly-D-lysine-coated plates at a density of 15,000 cells/20 μL/well in DMEM containing 10% dialyzed FBS, 20 mM HEPES, and 100 units/mL penicillin/streptomycin (assay media). Plated cells were incubated overnight at 37° C. in the presence of 5% CO2. The following day, the medium was exchanged from the cells to assay buffer [Hanks' balanced salt solution (Invitrogen) containing 20 mM HEPES, pH 7.3] using an ELX405 microplate washer (BioTek), leaving 20 μL/well, followed by the addition of 20 μL/well FluoZin2-AM (330 nM final concentration) indicator dye (Invitrogen; prepared as a stock in DMSO and mixed in a 1:1 ratio with Pluronic acid F-127) in assay buffer. Cells were incubated for 1 h at room temperature, and the dye exchanged to assay buffer using an ELX405, leaving 20 μL/well. Test compounds were diluted to 2 times their final desired concentration in assay buffer (0.3% DMSO final concentration). Agonists were diluted in thallium buffer [125 mM sodium bicarbonate (added fresh the morning of the experiment), 1 mM magnesium sulfate, 1.8 mM calcium sulfate, 5 mM glucose, 12 mM thallium sulfate, and 10 mM HEPES, pH 7.3] at 5 times the final concentration to be assayed. Cell plates and compound plates were loaded onto a kinetic imaging plate reader (FDSS 6000 or 7000; Hamamatsu Corporation, Bridgewater, NJ). Appropriate baseline readings were taken (10 images at 1 Hz; excitation, 470±20 nm; emission, 540±30 nm) and test compounds were added in a 20 μL volume and incubated for approximately 2.5 min before the addition of 10 μL of thallium buffer with or without agonist. After the addition of agonist, data were collected for approximately an additional 2.5 min. Data were analyzed using Excel (Microsoft Corp, Redmond, WA). The slope of the fluorescence increase beginning 5 s after thallium/agonist addition and ending 15 s after thallium/agonist addition was calculated, corrected to vehicle and maximal agonist control slope values, and plotted in using either XLfit (ID Business Solutions Ltd) or Prism software (GraphPad Software, San Diego, CA) to generate concentration-response curves. Potencies were calculated from fits using a four-point parameter logistic equation. For concentration-response curve experiments, compounds were serially diluted 1:3 into 10-point concentration response curves and were transferred to daughter plates using an Echo acoustic plate reformatter (Labcyte, Sunnyvale, CA). Test compounds were applied and followed by EC20 concentrations of glutamate.

Chain of Human mGlu2 (Q14416 19-872): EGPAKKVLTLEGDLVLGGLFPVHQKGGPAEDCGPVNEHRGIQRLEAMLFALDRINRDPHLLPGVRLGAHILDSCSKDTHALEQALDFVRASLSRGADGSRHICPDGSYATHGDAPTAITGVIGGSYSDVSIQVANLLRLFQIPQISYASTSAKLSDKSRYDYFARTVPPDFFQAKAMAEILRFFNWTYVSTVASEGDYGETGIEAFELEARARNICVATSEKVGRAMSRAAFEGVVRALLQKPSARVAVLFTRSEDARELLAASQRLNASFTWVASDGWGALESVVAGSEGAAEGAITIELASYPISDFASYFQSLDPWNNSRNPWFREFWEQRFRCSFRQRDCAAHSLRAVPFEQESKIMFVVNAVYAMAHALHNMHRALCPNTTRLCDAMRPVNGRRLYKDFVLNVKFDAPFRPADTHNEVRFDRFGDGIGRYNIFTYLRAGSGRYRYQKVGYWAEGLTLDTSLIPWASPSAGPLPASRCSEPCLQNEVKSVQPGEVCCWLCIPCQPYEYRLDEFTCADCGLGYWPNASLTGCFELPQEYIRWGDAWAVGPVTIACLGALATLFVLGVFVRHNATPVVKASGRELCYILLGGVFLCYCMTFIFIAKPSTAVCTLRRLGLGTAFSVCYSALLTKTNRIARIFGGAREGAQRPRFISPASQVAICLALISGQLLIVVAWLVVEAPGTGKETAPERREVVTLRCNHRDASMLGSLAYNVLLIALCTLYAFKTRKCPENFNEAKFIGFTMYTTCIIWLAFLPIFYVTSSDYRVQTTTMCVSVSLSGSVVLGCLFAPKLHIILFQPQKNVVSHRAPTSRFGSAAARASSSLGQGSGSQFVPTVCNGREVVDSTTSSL
Chain of Human mGlu3 (Q14832 23-879): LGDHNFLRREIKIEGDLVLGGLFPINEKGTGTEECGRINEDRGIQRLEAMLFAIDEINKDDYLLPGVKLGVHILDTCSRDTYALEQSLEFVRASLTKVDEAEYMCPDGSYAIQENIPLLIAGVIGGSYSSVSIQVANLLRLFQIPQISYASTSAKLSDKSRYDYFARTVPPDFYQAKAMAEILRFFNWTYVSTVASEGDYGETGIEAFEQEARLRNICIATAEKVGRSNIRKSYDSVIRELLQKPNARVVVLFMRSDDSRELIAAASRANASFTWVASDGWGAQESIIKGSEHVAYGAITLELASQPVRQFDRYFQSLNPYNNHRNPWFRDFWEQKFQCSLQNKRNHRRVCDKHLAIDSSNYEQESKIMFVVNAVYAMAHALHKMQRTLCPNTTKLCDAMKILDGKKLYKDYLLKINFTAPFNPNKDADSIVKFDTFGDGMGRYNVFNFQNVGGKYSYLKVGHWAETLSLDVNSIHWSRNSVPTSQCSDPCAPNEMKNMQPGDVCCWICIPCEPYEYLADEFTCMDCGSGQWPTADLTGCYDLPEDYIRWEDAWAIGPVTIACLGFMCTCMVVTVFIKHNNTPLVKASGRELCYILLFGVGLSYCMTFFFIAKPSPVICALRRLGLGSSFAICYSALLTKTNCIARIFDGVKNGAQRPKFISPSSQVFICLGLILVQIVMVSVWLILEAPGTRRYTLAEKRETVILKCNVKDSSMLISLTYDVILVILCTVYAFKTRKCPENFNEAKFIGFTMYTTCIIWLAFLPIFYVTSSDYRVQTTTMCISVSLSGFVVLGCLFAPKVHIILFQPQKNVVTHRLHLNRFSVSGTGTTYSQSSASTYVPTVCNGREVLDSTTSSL

For `COc1ccc(C(=O)O)cc1CCCCCOc1ccc(C(=O)CC(C)(C)C)c(O)c1C` [Example 3, 3-(5-(4-(3,3-Dimethylbutanoyl)-3-hydroxy-2-methylphenoxy)pentyl)-4-methoxybenzoic acid], the EC50 at Human mGlu2 is 1350 nM; at Human mGlu3, 750 nM.

`COc1ccc(C(=O)O)cc1OCCCCCCCCOc1ccc(C(=O)CC(C)(C)C)c(O)c1C` [Example 18, 3-{8-[4-(3,3-Dimethylbutanoyl)-3-hydroxy-2-methylphenoxy]octyloxy}-4-methoxybenzoic acid]: the EC50 on Human mGlu2 is 882 nM; on Human mGlu3, over 10000 nM.

Take `COc1ccc(C(=O)O)cc1OCCCCCCCOc1ccc(C(=O)CC(C)(C)C)c(O)c1C` [Example 20, 3-{7-[4-(3,3-Dimethylbutanoyl)-3-hydroxy-2-methylphenoxy]heptyloxy}-4-methoxybenzoic acid]: the EC50 at Human mGlu2 was found to be 334 nM; on Human mGlu3 it was 1060 nM.

With `COc1ccc(C(=O)O)cc1OCCCCCCCCCOc1ccc(C(=O)CC(C)(C)C)c(O)c1C` [Example 27, 3-{9-[4-(3,3-Dimethylbutanoyl)-3-hydroxy-2-methylphenoxy]nonyloxy}-4-methoxybenzoic acid], the values for the EC50 on Human mGlu2 and on Human mGlu3 were 710 nM and 1120 nM, respectively.

In the case of `COc1ccc(C(=O)O)cc1OCCCCCCCCCCOc1ccc(C(=O)CC(C)(C)C)c(O)c1C` [Example 28, 3-{10-[4-(3,3-Dimethylbutanoyl)-3-hydroxy-2-methylphenoxy]decyloxy}-4-methoxybenzoic acid], the EC50 was found to be 415 nM on Human mGlu2 and 995 nM on Human mGlu3.

With `COc1ccc(C(=O)O)cc1OCCN(CCOc1ccc(C(=O)CC(C)(C)C)c(O)c1C)S(=O)(=O)c1ccc(C)cc1` [Example 31, 3-[2-({2-[4-(3,3-Dimethylbutanoyl)-3-hydroxy-2-methylphenoxy]ethyl}[(4-methylphenyl)sulfonyl]amino)ethoxy]-4-methoxybenzoic acid], the EC50 on Human mGlu2 is 373 nM; at Human mGlu3, over 30000 nM.

Take `[2H]/C(=C(/[2H])C([2H])([2H])Oc1ccc(C(=O)CCC)c(O)c1C)C([2H])([2H])Oc1cccc(C(=O)O)c1C` [Example 58, (E)-3-((4-(4-Butyryl-3-hydroxy-2-methylphenoxy)but-2-en-1-yl-1,1,2,3,4,4-d6)oxy)-2-methylbenzoic acid]: the EC50 on Human mGlu2 worked out at 8 nM; on Human mGlu3, 540 nM.

For `COc1cccc(C(=O)c2ccc(OCc3cccc(-c4cccc(C(=O)O)c4)c3)c(C)c2O)c1` [compound 62, 3′-((3-Hydroxy-4-(3-methoxybenzoyl)-2-methylphenoxy)methyl)-[1,1′-biphenyl]-3-carboxylic acid], the EC50 at Human mGlu2 turned out to be 1170 nM; on Human mGlu3, 1600 nM.

On to `COc1ccc(C(=O)c2ccc(OCCCCOc3cc(C(=O)O)ccc3OC)c(C)c2O)cc1` [compound 63, 3-(4-(3-Hydroxy-4-(4-methoxybenzoyl)-2-methylphenoxy)butoxy)-4-methoxybenzoic acid], for which the EC50 at Human mGlu2 worked out at 507 nM; on Human mGlu3 it was 557 nM.

Regarding `COc1ccccc1C(=O)c1ccc(OCc2cnc(-c3cccc(C(=O)O)c3)cn2)c(C)c1O` [compound 73, 3-(5-((3-Hydroxy-4-(2-methoxybenzoyl)-2-methylphenoxy)methyl)pyrazin-2-yl)benzoic acid], the EC50 at Human mGlu2 is 2030 nM; at Human mGlu3, 685 nM.

With `Cc1c(OCc2cccc(-c3cccc(C(=O)O)c3)c2)ccc(C(=O)c2ccc(F)cc2)c1O` [compound 74, 3′-((4-(4-Fluorobenzoyl)-3-hydroxy-2-methylphenoxy)methyl)-[1,1′-biphenyl]-3-carboxylic acid], the EC50 is 924 nM on Human mGlu2 and 1650 nM at Human mGlu3.

`COc1cccc(C(=O)c2ccc(OCc3cnc(-c4cccc(C(=O)O)c4)cn3)c(C)c2O)c1` [compound 75, 3-(5-((3-Hydroxy-4-(3-methoxybenzoyl)-2-methylphenoxy)methyl)pyrazin-2-yl)benzoic acid]: the EC50 on Human mGlu2 came out at 2710 nM; on Human mGlu3 it was 1340 nM.

Turning to `COc1ccc(C(=O)O)cc1OCCCCOc1ccc(C(=O)c2ccc(C(C)(C)C)cc2)c(O)c1C` [compound 76, 3-[4-(4-{[4-(tert-Butyl)phenyl]carbonyl}-3-hydroxy-2-methylphenoxy)butoxy]-4-methoxybenzoic acid], the EC50 at Human mGlu2 and on Human mGlu3 was over 10000 nM each time.

Take `Cc1c(OCc2nc(-c3cccc(C(=O)O)c3)no2)ccc(C(=O)C2CC2)c1O` [compound 77, 3-(5-((4-(Cyclopropanecarbonyl)-3-hydroxy-2-methylphenoxy)methyl)-1,2,4-oxadiazol-3-yl)benzoic acid]: the figures for the EC50 on Human mGlu2 and on Human mGlu3 were 119 nM and over 10000 nM, respectively.

As for `COc1c(C(=O)O)cccc1-c1cnc(COc2ccc(C(=O)C3CC3)c(O)c2C)cn1` [compound 78, 3-(5-((4-(Cyclopropanecarbonyl)-3-hydroxy-2-methylphenoxy)methyl)pyrazin-2-yl)-2-methoxybenzoic acid], the values for the EC50 on Human mGlu2 and on Human mGlu3 were 41 nM and 1930 nM, respectively.

For `Cc1c(OCCCCSc2cccc(C(=O)O)c2)ccc(C(=O)CC(C)(C)C)c1O` [compound 80, 3-((4-(4-(3,3-Dimethylbutanoyl)-3-hydroxy-2-methylphenoxy)butyl)thio)benzoic acid], the EC50 is 228 nM on Human mGlu2 and 461 nM at Human mGlu3.

On to `Cc1c(SCCCCSc2cccc(C(=O)O)c2)ccc(C(=O)CC(C)(C)C)c1O` [compound 82, 3-{4-[4-(3,3-Dimethylbutanoyl)-3-hydroxy-2-methylphenylthio]butylthio}benzoic acid], for which the EC50 at Human mGlu2 was 423 nM; on Human mGlu3, 3000 nM.

For the molecule `COc1cc(C(=O)O)cc(-c2cnc(COc3ccc(C(=O)CC(C)(C)C)c(O)c3C)cn2)c1` [compound 129, 3-(5-((4-(3,3-Dimethylbutanoyl)-3-hydroxy-2-methylphenoxy)methyl)pyrazin-2-yl)-5-methoxybenzoic acid], the values for the EC50 at Human mGlu2 and at Human mGlu3 were 729 nM and 364 nM, respectively.

Consider `COc1ccc(C(=O)O)cc1OCCCCOc1ccc(C(=O)CC(C)(C)C)c(O)c1-c1ccccc1` [compound 131, 3-(4-((5-(3,3-Dimethylbutanoyl)-6-hydroxy-[1,1′-biphenyl]-2-yl)oxy)butoxy)-4-methoxybenzoic acid], for which the results for the EC50 on Human mGlu2 and on Human mGlu3 were 231 nM and 1050 nM, respectively.

As to `Cc1c(OCc2nnc(-c3cccc(C(=O)O)c3)o2)ccc(C(=O)CC(C)(C)C)c1O` [compound 134, 3-(5-((4-(3,3-Dimethylbutanoyl)-3-hydroxy-2-methylphenoxy)methyl)-1,3,4-oxadiazol-2-yl)benzoic acid], the EC50 on Human mGlu2 is 243 nM; on Human mGlu3, 327 nM.

Regarding `Cc1c(OCc2cnc(-c3ccc(C(=O)O)c(F)c3)cn2)ccc(C(=O)CC(C)(C)C)c1O` [compound 137, 4-(5-((4-(3,3-Dimethylbutanoyl)-3-hydroxy-2-methylphenoxy)methyl)pyrazin-2-yl)-2-fluorobenzoic acid], the EC50 at Human mGlu2 is 913 nM; at Human mGlu3, 3950 nM.

Regarding `Cc1c(OCc2cnc(-c3ccc(Cl)c(C(=O)O)c3)cn2)ccc(C(=O)CC(C)(C)C)c1O` [compound 138, 2-Chloro-5-(5-((4-(3,3-Dimethylbutanoyl)-3-hydroxy-2-methylphenoxy)methyl)pyrazin-2-yl)benzoic acid], the results for the EC50 on Human mGlu2 and at Human mGlu3 were 445 nM and 104 nM, respectively.

As to `Cc1c(OCc2cnc(-c3cc(F)cc(C(=O)O)c3)cn2)ccc(C(=O)CC(C)(C)C)c1O` [compound 139, 3-(5-((4-(3,3-Dimethylbutanoyl)-3-hydroxy-2-methylphenoxy)methyl)pyrazin-2-yl)-5-fluorobenzoic acid], the EC50 at Human mGlu2 was 1750 nM; at Human mGlu3 it was 1080 nM.

As usually defined, the EC50 is the concentration giving half of the maximal effect.
